Experiments:
[1] = system: SOCE (store operated calcium entry) in CHO cells; assay: Assay of SOCE (store operated calcium entry)-inhibiting action; assay type: cell-based, Chinese hamster; settings: Cricetulus griseus, CHO, CHO cells, thapsigargin, read-out: SOCE level (percentage of inhibition); for inhibition at 10 µM: test compound 10 μmol; for inhibition at 30 µM: test compound 30 μmol; for inhibition at 100 µM: test compound 100 μmol
Outline: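 CHO cells in calcium-free BSS received compound, then 1 μM thapsigargin 2 min later to deplete stores; after 9 min, 2 mM calcium chloride (final) added. Percent inhibition of the rise in intracellular calcium determined at various compound concentrations.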

[2] = system: IICR (IP3 induced calcium release) in CHO cells; assay: Assay of IICR (IP3 induced calcium release)-inhibiting action; assay type: cell-based, Chinese hamster; settings: CHO cells, 10 μM ATP; for inhibition at 10 µM / inhibition at 30 µM / inhibition at 100 µM: Cricetulus griseus, CHO, read-out: IICR level (percentage of inhibition)
Outline: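 Inhibition (%) of the intracellular calcium increase triggered by 10 μM ATP, measured in CHO cells in BSS with calcium. Compound given 1 min after the buffer exchange and 2 min before ATP; values reported per compound concentration.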

Structure (SMILES) | inhibition at 10 µM [1] [%] | inhibition at 30 µM [1] [%] | inhibition at 100 µM [1] [%] | inhibition at 10 µM ([2]; test compound 10 μmol) [%] | inhibition at 30 µM ([2]; test compound 30 μmol) [%] | inhibition at 100 µM ([2]; test compound 100 μmol) [%] | IICR level (percentage of inhibition) ([2]; test compound 10 μmol) [%] | IICR level (percentage of inhibition) ([2]; test compound 30 μmol) [%] | IICR level (percentage of inhibition) ([2]; test compound 100 μmol) [%]
CN(CCC(=O)c1cccs1)Cc1ccccc1 [Example 125, 2-(N-methylbenzyl)aminoethyl-2-thiophenylketone] | 0 | 0 | 0 | 0 | 30 | 70 | – | – | –
CN(CCO)CCC(=O)c1cccs1 [Example 126, 2-(N-methylhydroxyethyl)aminoethyl-2-thiophenylketone] | 0 | 0 | 0 | 20 | 20 | 70 | – | – | –
O=C(CCN1CCCCC1CO)c1cccs1 (stereo not drawn) [Example 127] | 0 | 0 | 10 | 20 | 20 | 50 | – | – | –
O=C(CCNc1ccccc1S)c1cccs1 [Example 128, 2-(2-mercaptophenyl)aminoethylthiophenylketone] | 0 | 0 | 20 | 0 | 30 | 10 | – | – | –
O=C(CCN(CCO)Cc1ccccc1)c1cnccn1 [Example 129, 2-(N-benzylhydroxyethyl)aminoethyl-2-pyrazylketone] | 0 | 0 | 0 | 0 | 50 | 90 | – | – | –
O=C(CCN(CCO)CCO)c1ccco1 [Example 130, 2-(N-bis-hydroxyethyl)aminoethyl-2-furylketone] | 0 | 0 | 0 | – | – | – | 20 | 20 | 50
CN1CCN(CCC(=O)c2ccccc2)CC1 [Example 131, 2-(N-methylpiperazyl)ethylphenylketone] | 0 | 0 | 0 | 30 | 20 | 50 | – | – | –
O=C(CCN(CCO)c1ccccc1)c1ccco1 [Example 132, 2-(N-phenylhydroxyethyl)aminoethyl-2-furylketone] | 0 | 0 | 0 | 10 | 20 | 20 | – | – | –
O=C(CCN(CCO)c1ccccc1)c1ccccc1 [Example 133, 2-(N-phenylhydroxyethyl)aminoethylphenylketone] | 0 | 0 | 0 | 20 | 20 | 30 | – | – | –
O=C(CCN(CCO)c1ccccc1)c1ccncc1 [Example 134, 2-(N-phenylhydroxyethyl)aminoethyl-4-pyridylketone] | 0 | 0 | 0 | 20 | 20 | 30 | – | – | –
O=C(CCN(CCO)Cc1ccccc1)c1ccncc1 [Example 135, 2-(N-benzylhydroxyethyl)aminoethyl-4-pyridylketone] | 0 | 0 | 0 | 20 | 10 | 0 | – | – | –
Cc1ccc(C(=O)CCN(Cc2ccccc2)C(C)C)o1 [Example 136] | 0 | 0 | 20 | 50 | 60 | 80 | – | – | –
Cc1ccc(C(=O)CCN(Cc2ccccc2)C(C)(C)C)o1 [Example 137, 2-(N-benzyl-t-butyl)aminoethyl-5-methyl-2-furylketone] | 0 | 0 | 0 | 40 | 50 | 50 | – | – | –
Cc1ccc(C(=O)CCN(Cc2ccccc2)Cc2ccccc2)o1 [Example 138, 2-(N-dibenzyl)aminoethyl-5-methyl-2-furylketone] | 0 | 10 | 20 | 0 | 0 | 10 | – | – | –
Cc1ccc(C(=O)CCN(CCO)Cc2ccccc2)o1 [Example 139, 2-(N-benzylhydroxyethyl)aminoethyl-5-methyl-2-furylketone] | 0 | 0 | 0 | 20 | 20 | 30 | – | – | –
Cc1ccc(C(=O)CCN(C)CCO)o1 [Example 140, 2-(N-methylhydroxyethyl)aminoethyl-5-methyl-2-furylketone] | 0 | 0 | 0 | 20 | 20 | 30 | – | – | –
CCC(CO)(CO)NCCC(=O)c1cccc2ccccc12 [Example 141] | 0 | 0 | 0 | 20 | 20 | 20 | – | – | –
CCN(CCC(=O)c1ccco1)Cc1ccccc1 [Example 142, 2-(N-benzylethyl)aminoethyl-2-furylketone] | 0 | 0 | 0 | 40 | 50 | 80 | – | – | –
O=C(CCN(CCO)CCO)c1nccs1 [Example 143, 2-(N,N-dihydroxyethyl)aminoethyl-2-thiazolylketone] | 0 | 0 | 10 | 0 | 50 | 90 | – | – | –
CCN(CCC(=O)c1cccnc1)Cc1ccccc1 [Example 144, 2-(N-benzylethyl)aminoethyl-3-pyridylketone] | 0 | 0 | 0 | 30 | 40 | 50 | – | – | –
Cc1ccc(C(=O)CCN(CCO)CCO)o1 [Example 145, 2-(N-bishydroxyethyl)aminoethyl-5-methyl-2-furylketone] | 0 | 10 | 20 | 50 | 30 | 30 | – | – | –
Cc1ccc(C(=O)CCN(CCO)C(C)C)o1 [Example 146, 2-(N-isopropylhydroxyethyl)aminoethyl-5-methyl-2-furylketone] | 0 | 0 | 0 | 50 | 30 | 90 | – | – | –
O=C(CCN(CCO)CCO)c1ccc2ccccc2c1 [Example 147, 2-(N-bishydroxyethyl)aminoethyl-2-naphthylketone] | 0 | 0 | 0 | 20 | 60 | 90 | – | – | –
COc1ccc(C(=O)CCN(CCO)CCO)cc1 [Example 148, 2-(N-bishydroxyethyl)aminoethyl-4-methoxyphenylketone] | 0 | 0 | 0 | 20 | 30 | 90 | – | – | –
O=C(CCN(CCO)CCO)c1cccs1 [Example 149, 2-(N-dihydroxyethyl)aminoethylthiophenylketone] | 0 | 0 | 0 | 20 | 20 | 80 | – | – | –
O=C(CCN(CCO)CCO)c1cccnc1 [Example 150, 2-(N-bishydroxyethyl)aminoethyl-3-pyridylketone] | 0 | 0 | 10 | 30 | 20 | 50 | – | – | –
CC(C)N(CCO)CCC(=O)c1cnccn1 [Example 151, 2-(N-isopropylhydroxyethyl)aminoethyl-2-pyrazylketone] | 0 | 0 | 0 | 20 | 20 | 50 | – | – | –
Cc1ccc(C(=O)CCNCc2ccccc2)o1 [Example 152, 2-(N-benzyl)aminoethyl-5-methyl-2-furylketone] | 0 | 10 | 30 | 20 | 10 | 30 | – | – | –

— patent publication US8937091B2 (Japan Science and Technology Agency, priority 2009, dated 2015)
